# Measurements published in patent publication US4371535A, “Method of and composition for delivering 5-fluorouracil to tumors” (priority 1976, dated 1983).
# Like-named read-outs stand apart in the source and are kept apart here.
# Columns and labels:
# transplanted tumors = conditions: Heidelberger et al.; cited from earlier work
# [1] = cited from earlier work
# in vivo = type: in vivo; conditions: mouse, in vivo, oral, mice
# Procedure: (§1) Mice (ddy strain, male, 5 weeks old) are reared for one week, then fasted for 15 hours and thereafter orally given the compound forcibly. After the administration, the mice are placed into plastic cages, with free access to a solid diet and water, and checked for mortality 3 days, one week, 2 weeks and 3 weeks later. LD50 is calculated according to the method of Litchfield and Wilcoxon.
# Mice (ddy strain) = assay: in vivo; type: in vivo; conditions: for LD50: oral, mice
# Procedure: as §1
# Ehrlich carcinoma = assay: Anti-tumor activity on Ehrlich carcinoma, subcutaneous transplant; type: in vivo; conditions: mice, oral once daily 7 days; for Inhibition percentage: 121.5 mg/kg (bis) or 90 mg/kg (mono), tumor weight on 10th day; for Weight of tumor: 121.5 mg/kg (bis) or 90 mg/kg (mono, equimolar), 10th day, control 0.61 ± 0.08 g
# Procedure: (§2) As transplantable tumors, Ehrlich carcinoma and sarcoma 180 are used for mice and Yoshida sarcoma and AH 130 for rats. […] The effect of the compound is determined in terms of the weight of tumor on the 10th day from the transplantation.
# sarcoma 180 = assay: Anti-tumor activity on sarcoma 180, subcutaneous transplant; type: in vivo; conditions: mice, oral once daily 7 days, 121.5 mg/kg (bis) or 90 mg/kg (mono); for Weight of tumor: 10th day, control 1.00 ± 0.09 g; for Inhibition percentage: tumor weight on 10th day
# Procedure: as §2
# Yoshida sarcoma = assay: Anti-tumor activity on Yoshida sarcoma, subcutaneous transplant; type: in vivo; conditions: rats, oral once daily 7 days, 121.5 mg/kg (bis) or 90 mg/kg (mono); for Weight of tumor: 10th day, control 4.48 ± 0.60 g; for Inhibition percentage: tumor weight on 10th day
# Procedure: as §2
# AH-130 = assay: Anti-tumor activity on AH-130, subcutaneous transplant; type: in vivo; conditions: rats, oral once daily 7 days, 121.5 mg/kg (bis) or 90 mg/kg (mono); for Weight of tumor: 10th day, control 2.10 ± 0.50 g; for Inhibition percentage: tumor weight on 10th day
# Procedure: as §2
# Solubility = type: physicochemical
# tumor = assay: Anti-tumor activity, overall comparison with 1-(2-tetrahydrofuryl)-5-fluorouracil; type: in vivo; conditions: versus 1-(2-tetrahydrofuryl)-5-fluorouracil
# Procedure: as §2
# [2] = Conversion in the body into 5-fluorouracil; conditions: in vivo
# Procedure: (§3) Cells of the tumor, AH-130, 5×10^6 in number, are subcutaneously transplanted in the armpit region of test animals (3 in each group). […] The concentration of 5-fluorouracil in the blood and in the cancer cellular tissue of the animals are measured 1, 2, 4, 8 and 12 hours after the administration.
# cellular immunity = conditions: mouse, in vivo
# Procedure: A predetermined amount of 7 wt. % ethanol solution of picryl chloride is given to the shaved abdomens of mice for sensitization. […] On the seventh day after the sensitization, a 1 wt. % olive oil solution of picryl chloride is applied to the inside of both ears of each animal to give rise to a delayed cutireaction. The thickness of the ear resulting from the reaction in 24 hours is measured to calculate the percentage of inhibition on immunity.
# [3] = rat, in vivo; for Concentration of 5-fluorouracil in blood: po
# Procedure: as §3
# [4] = rat, in vivo; for Concentration of 5-fluorouracil in cancer cellular tissue: po
# Procedure: as §3
# [5] = Toxicity and side effects, overall statement; conditions: versus 1-(2-tetrahydrofuryl)-5-fluorouracil
# immunity = conditions: versus 5-fluorouracil; Giller et al., British Pat. No. 1,168,391; cited from earlier work
Compound,Inhibition percentage (Ehrlich carcinoma),Weight of tumor (Ehrlich carcinoma),Weight of tumor (sarcoma 180),Inhibition percentage (sarcoma 180),Weight of tumor (Yoshida sarcoma),Inhibition percentage (Yoshida sarcoma),Weight of tumor (AH-130),Inhibition percentage (AH-130),Concentration of 5-fluorouracil in blood ([3]; 60 min),Concentration of 5-fluorouracil in blood ([3]; 120 min),Concentration of 5-fluorouracil in blood ([3]; 240 min),Concentration of 5-fluorouracil in blood ([3]; 480 min),Concentration of 5-fluorouracil in blood ([3]; 720 min),Concentration of 5-fluorouracil in cancer cellular tissue ([4]; 60 min),Concentration of 5-fluorouracil in cancer cellular tissue ([4]; 120 min),Concentration of 5-fluorouracil in cancer cellular tissue ([4]; 240 min),Concentration of 5-fluorouracil in cancer cellular tissue ([4]; 480 min),Concentration of 5-fluorouracil in cancer cellular tissue ([4]; 720 min),other results
O=c1[nH]cc(F)c(=O)[nH]1 [5-fluorouracil],–,–,–,–,–,–,–,–,–,–,–,–,–,–,–,–,–,–,"Anti-tumor activity, in words (transplanted tumors): inhibit transplanted tumors; Toxicity, in words ([1]; background statement): highly toxic; Side effects, in words ([1]; in vivo): reduced immunity, gastro-intestinal ulceration, leucopenia and various other side effects"
"O=c1c(F)cn(C2CCCO2)c(=O)n1C1CCCO1 (centres unmarked) [1,3-bis(2-tetrahydrofuryl)-5-fluorouracil]",57%,0.26 ± 0.06 g,0.31 ± 0.10 g,69%,2.59 ± 0.33 g,42%,0.92 ± 0.35 g,56%,5880 ng/mL,5080 ng/mL,2650 ng/mL,570 ng/mL,200 ng/mL,8930 ng/mL,7530 ng/mL,7530 ng/mL,5400 ng/mL,2130 ng/mL,"LD50 at 504 h (in vivo; 3 weeks): 2560 mg/kg; LD50 at 72 h (in vivo; 3 days): 2980 mg/kg; LD50 (Mice (ddy strain); 1 week, 10080 min): 2,780 mg/kg; LD50 (Mice (ddy strain); 2 weeks, 20160 min): 2,664 mg/kg; Acute toxicity relative to the conventional composition (Mice (ddy strain); versus composition containing 1-(2-tetrahydrofuryl)-5-fluorouracil): about one-third; Solubility (Solubility; methanol, ethanol, acetone, ether, chloroform, glacial acetic acid, dimethyl sulfoxide): soluble; Solubility (Solubility; water, aqueous caustic soda solution, ethyl acetate, hydrochloric acid): sparingly soluble; Anti-tumor activity, in words (tumor): more excellent anti-tumor activity; Conversion in the body (prodrug) [2]: converted in the body into 5-fluorouracil; Inhibitory effect on the cellular immunity relative to the conventional composition (cellular immunity): lower inhibitory effect on the cellular immunity; Concentration of 5-fluorouracil in the blood relative to the conventional composition [3]: 10-20 times; Concentration of 5-fluorouracil in cancer cellular tissue relative to the conventional composition [4]: 10-20 times; Concentration of 5-fluorouracil maintained in cancer cellular tissue, in words [4]: much higher; Side effects, in words [5]: less side effects; Toxicity, in words [5]: lower toxicity"
"O=c1[nH]c(=O)n(C2CCCO2)cc1F (centres unmarked) [1-(2-tetrahydrofuryl)-5-fluorouracil, reference compound]",39%,0.37 ± 0.14 g,0.36 ± 0.11 g,64%,3.48 ± 0.68 g,22%,1.11 ± 0.17 g,47%,200 ng/mL,300 ng/mL,200 ng/mL,80 ng/mL,≤ 40 ng/mL,≤ 200 ng/mL,350 ng/mL,350 ng/mL,340 ng/mL,≤ 200 ng/mL,"Inhibition on immunity, in words (immunity): less inhibitory on immunity than 5-fluorouracil; Toxicity, in words ([1]; versus 5-fluorouracil, Giller et al., British Pat. No. 1,168,391): lower in toxicity"
